Results: paper PMC10413841, “Exploration of Thiourea-Based Scaffolds for the Construction of Bacterial Ureases Inhibitors” (ACS Omega, 2023)
Where “and” joins values, the source holds several entries; their conditions need not be identical. Equal values may be shown once. Read-outs that look alike come from different tables or passages of the source.

Legend:
[1] = target: T1, native S. pasteurii CCM 2056 urease (Sporosarcina pasteurii, UniProt P41020); test: Inhibition of purified native urease, indophenol (Berthelot) ammonia assay; type: biochemical; conditions: for Ki: purified native enzyme, EI dissociation constant from Lineweaver-Burke plots, urea up to 30 mM, 3 mM phosphate buffer; for type (mode) of inhibition / α quantifier between ESI dissociation constant Ki* and EI dissociation constant Ki: purified S. pasteurii urease
T1 construct: The S. pasteurii CCM 2056 cells were used as the source of a native enzyme; endogenous in cells; host or cells: S. pasteurii CCM 2056 culture; endogenous enzyme purified in house from the sonicated cell extract by five-step chromatography
Method: The kinetic properties of the compounds as potential urease inhibitors were evaluated against native enzyme purified from S. pasteurii CCM 2056 culture. Residual enzyme activity was expressed as ammonia release from urea followed quantitively using the Berthelot reaction. All of the studied structures were reversibly inhibitory, with dissociation constants ranging from submicromolar to moderate micromolar concentrations (Table 1). The α quantifier between the enzyme-substrate-inhibitor complex (ESI) dissociation constant Ki* and the EI dissociation constant Ki [drawing 1] was calculated to determine the influence of substrate binding on the stability of the EI complex. […] For modeled compounds 19, 16, and 29, the values of α were 152.01, 38.04, and 14.52, respectively. […] For comparison, the α value of compound 52 was 1.37.
The S. pasteurii CCM 2056 cells were used as the source of a native enzyme. The culture medium was made of 20 g/L yeast extract. One day after the inoculation, the medium was further supplemented with 1 mM NiCl2 and 1% urea. After 2 more days of growth, the cells were centrifuged and disintegrated via sonication. Enzyme purification from the cell extract was conducted using a five-step chromatographic method as previously reported.[50]
Inhibition of the purified urease was measured using the indophenol assay for ammonia concentration.[65] The kinetic assays in 3 mM phosphate buffer contained the purified enzyme, studied thiourea analogues, and a range of urea concentrations up to saturating 30 mM. Total progress curves were analyzed with the addition of the enzyme at the reaction start. Assays were terminated with the sequential addition of 100 μL of M1 ([…] sodium nitroprusside, 0.53 M phenol) and M2 (0.625 M sodium hydroxide, 47.1 mM sodium hypochlorite) solution to 50 μL of reaction mixture sample. After 15 min of color development, absorbance at 650 nm was measured. […] In order to verify the inhibition mode as well as calculate the dissociation constant for EI complex, Lineweaver–Burke curves were plotted (1/v = f(1/[S])). For noncompetitive or mixed inhibition mode, Ki was calculated from plots of the LB curves slope as a function of inhibitor concentration.

[2] = test system: live cells of S. pasteurii CCM 2056; test: Whole-cell ureolysis: ammonia release from urea in live cells; type: cell-based, Sporosarcina pasteurii; conditions: for IC50: Sporosarcina pasteurii, CCM2056
[3] = test system: live cells of P. mirabilis PCM 543; test: as above; type: cell-based, Proteus mirabilis; conditions: urea hydrolysis in live cells, 30 mM urea, 10 mM PBS, read-out: IC50 [μM] (± SD) P. mirabilis cells
Method: Proteus mirabilis PCM 543 was cultured as described for S. pasteurii except for nickel ions—0.3 mM NiCl2 was used in the growth medium. Cells harvested by centrifugation were resuspended in 10 mM PBS and used for urease activity measurements. Assays were conducted in 10 mM PBS containing 30 mM urea and different concentrations of urease inhibitors and ammonia quantified by indophenol assay.

[4] = urea hydrolysis in live cells, 30 mM urea, 10 mM PBS, read-out: IC50 [μM] (± SD) S. pasteurii cells

T1 sequence (P41022 whole entry): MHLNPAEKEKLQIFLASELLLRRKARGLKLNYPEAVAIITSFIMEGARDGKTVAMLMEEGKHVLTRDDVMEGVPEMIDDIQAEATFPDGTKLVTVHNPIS
T1 sequence (P41021 whole entry, further chain): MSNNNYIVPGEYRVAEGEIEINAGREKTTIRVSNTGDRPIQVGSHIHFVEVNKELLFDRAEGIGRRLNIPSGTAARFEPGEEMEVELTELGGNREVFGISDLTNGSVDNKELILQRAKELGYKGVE
T1 sequence (P41020 whole entry): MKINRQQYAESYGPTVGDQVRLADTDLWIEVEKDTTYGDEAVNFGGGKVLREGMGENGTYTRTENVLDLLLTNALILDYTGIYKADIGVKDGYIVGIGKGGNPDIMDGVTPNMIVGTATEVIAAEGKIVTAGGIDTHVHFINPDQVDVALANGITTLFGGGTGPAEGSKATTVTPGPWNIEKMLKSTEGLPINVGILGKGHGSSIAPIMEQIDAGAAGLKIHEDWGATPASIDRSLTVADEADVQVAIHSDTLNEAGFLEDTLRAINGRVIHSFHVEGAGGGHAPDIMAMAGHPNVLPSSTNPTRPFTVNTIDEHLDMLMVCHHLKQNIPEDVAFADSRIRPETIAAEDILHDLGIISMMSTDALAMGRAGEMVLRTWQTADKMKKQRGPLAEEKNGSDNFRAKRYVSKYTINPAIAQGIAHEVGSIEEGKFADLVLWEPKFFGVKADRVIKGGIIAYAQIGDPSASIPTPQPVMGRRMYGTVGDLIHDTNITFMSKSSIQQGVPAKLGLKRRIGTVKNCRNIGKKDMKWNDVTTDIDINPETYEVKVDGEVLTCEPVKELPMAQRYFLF

| SMILES | Ki ([1]; read-out: Ki [μM] (± SD)) | IC50 [2, 4] [µM] | IC50 ([3]; Proteus mirabilis) [µM] | other results |
| --- | --- | --- | --- | --- |
| COc1ccc(/C=N/NC(N)=S)cc1OC [Compound 18, (E)-2-(3,4-Dimethoxybenzylidene)hydrazine-1-carbothioamide] | 37.5 ± 4.79 µM | – | – | – |
| NNC(=S)N/N=C/c1ccccc1 [Compound 27, (E)-N′-Benzylidenehydrazinecarbothiohydrazide] | 8.31 ± 0.438 µM | 11.6 ± 0.65 | 544 ± 17.9 | – |
| NC(=S)N/N=C(\C=C\c1ccc(F)cc1)c1ccccc1 [Compound 24, (E)-2-((E)-3-(4-Fluorophenyl)-1-phenylallylidene)hydrazine-1-carbothioamide] | 24.2 ± 1.52 µM | 36.2 ± 2.84 | 510 ± 17.8 | – |
| NC(=S)N/N=C(\C=C\c1ccccc1)c1ccc(O)cc1 [Compound 25, (E)-2-((E)-1-(4-Hydroxyphenyl)-3-phenylallylidene)hydrazine-1-carbothioamide] | 5.4 ± 0.327 µM | 149 ± 8.7 | 763 ± 41.1 | type (mode) of inhibition [1]: noncompetitive |
| Cc1ccc(C2C=C(c3ccccc3)NC(=S)N2)cc1 (stereo not drawn) [Compound 38, 6-Phenyl-4-(p-tolyl)-3,4-dihydropyrimidine-2(1H)-thione] | 27.4 ± 3.47 µM | – | – | – |
| Fc1ccc(C2C=C(c3ccccc3)NC(=S)N2)cc1 (stereo not drawn) [Compound 40, 4-(4-Fluorophenyl)-6-phenyl-3,4-dihydropyrimidine-2(1H)-thione] | 5.55 ± 0.873 µM | – | – | – |
| Cc1ccc(C2CC(c3ccccc3)=NN2C(N)=S)cc1 (stereo not drawn) [Compound 33, 3-Phenyl-5-(p-tolyl)-4,5-dihydro-1H-pyrazole-1-carbothioamide] | 87.1 ± 9.29 µM | – | – | – |
| Cc1ccc(/C=C/C(=N\NC(=S)NN)c2ccccc2)cc1 [Compound 30, N′-((1E,2E)-1-Phenyl-3-(p-tolyl)allylidene)hydrazinecarbothiohydrazide] | 59.5 ± 4.4 µM | 553 ± 27.8 | – | – |
| NC(=S)N/N=C(\C=C\c1ccc(Cl)cc1)c1ccccc1 [Compound 23, (E)-2-((E)-3-(4-Chlorophenyl)-1-phenylallylidene)hydrazine-1-carbothioamide] | 14.9 ± 2.01 µM | 58.4 ± 3.21 | 430 ± 26.9 | – |
| NC(=S)N1N=C(c2ccccc2)CC1c1ccccc1 (stereo not drawn) [Compound 32, 3,5-Diphenyl-4,5-dihydro-1H-pyrazole-1-carbothioamide] | 71.7 ± 8.26 µM | – | – | – |
| S=C(NCc1ccccc1)Nc1nc(-c2ccc(Br)cc2)cs1 [Compound 53, 1-Benzyl-3-(4-(4-bromophenyl)thiazol-2-yl)thiourea] | 10.7 ± 0.79 µM | 416 ± 32.4 | 638 ± 48.2 | – |
| Oc1ccc(-c2csc(NC(=S)NCc3ccccc3)n2)cc1 [Compound 52, 1-Benzyl-3-(4-(4-hydroxyphenyl)thiazol-2-yl)thiourea] | 2.76 µM | 76.3 ± 4.5 | 304 ± 14 | fold change of inhibitory activity (IC50) against S. pasteurii cells compared to nonhydroxylated analogue 49 ([2]; 52 versus 49): over 6 fold; type (mode) of inhibition [1]: noncompetitive inhibition; α quantifier between ESI dissociation constant Ki* and EI dissociation constant Ki [1]: 1.37; IC50 [3]: 304 ± 13.9 µM |
| COc1ccc(C2=CC(c3ccccc3)NC(=S)N2)c(OC)c1 (stereo not drawn) [Compound 41, 6-(2,4-Dimethoxyphenyl)-4-phenyl-3,4-dihydropyrimidine-2(1H)-thione] | 47.7 ± 6.31 µM | – | – | – |
| COc1ccc(-c2csc(NC(=S)NCc3ccccc3)n2)cc1 [Compound 50, 1-Benzyl-3-(4-(4-methoxyphenyl)thiazol-2-yl)thiourea] | 41.4 ± 3.73 µM | – | – | – |
| S=C1NC(c2ccccc2)=CC(c2ccc(Cl)cc2)N1 (stereo not drawn) [Compound 39, 4-(4-Chlorophenyl)-6-phenyl-3,4-dihydropyrimidine-2(1H)-thione] | 30.2 ± 4.23 µM | – | – | – |
| NC(=S)N1N=C(c2ccccc2)CC1c1ccc(Cl)cc1 (stereo not drawn) [Compound 34, 5-(4-Chlorophenyl)-3-phenyl-4,5-dihydro-1H-pyrazole-1-carbothioamide] | 30.5 ± 2.84 µM | – | – | – |
| COc1ccc(-c2csc(NC(=S)NCc3ccccc3)n2)c(OC)c1 [Compound 51, 1-Benzyl-3-(4-(2,4-dimethoxyphenyl)thiazol-2-yl)thiourea] | – | 326 ± 18.7 | 509 ± 31.6 | Ki ([1]; Ki [μM] (± SD)): 22.2 ± 2.66 µM |
| Cc1ccc(/C=N/NC(N)=S)cc1 [Compound 16, (E)-2-(4-Methylbenzylidene)hydrazine-1-carbothioamide] | 0.99 µM and 0.998 µM | 9.92 ± 1.31 | 282 ± 32.4 | α quantifier between ESI dissociation constant Ki* and EI dissociation constant Ki [1]: 38.04 |
| NC(=S)N/N=C/c1ccccc1 [Compound 15, (E)-2-Benzylidenehydrazine-1-carbothioamide] | 3.57 ± 0.182 µM | 3.83 ± 0.282 | 347 ± 23.1 | IC50 ([2]; Gram-positive S. pasteurii cells, ureolysis inhibition, read-out: IC50 in S. pasteurii cells (unit inferred)): 3.8 ± 0.2 µM |
| NNC(=S)N/N=C(\C=C\c1ccc(Cl)cc1)c1ccccc1 [Compound 31, N′-((1E,2E)-3-(4-Chlorophenyl)-1-phenylallylidene)hydrazinecarbothiohydrazide] | 12.8 ± 1.54 µM | 132 ± 6.9 | – | – |
| C/C(=N\NC(N)=S)c1ccccc1 [Compound 19, (E)-2-(1-Phenylethylidene)hydrazine-1-carbothioamide] | 0.39 µM and 0.391 µM | 194 ± 12.5 | 568 ± 47.7 | α quantifier between ESI dissociation constant Ki* and EI dissociation constant Ki [1]: 152.01 |
| COc1ccc(C2=NN(C(N)=S)C(c3ccccc3)C2)c(OC)c1 (stereo not drawn) [Compound 36, 3-(2,4-Dimethoxyphenyl)-5-phenyl-4,5-dihydro-1H-pyrazole-1-carbothioamide] | 57.7 ± 4.42 µM | – | – | – |
| NC(=S)N1N=C(c2ccccc2)CC1c1ccc(F)cc1 (stereo not drawn) [Compound 35, 5-(4-Fluorophenyl)-3-phenyl-4,5-dihydro-1H-pyrazole-1-carbothioamide] | 46.5 ± 6.3 µM | – | – | – |
| COc1ccc(C(/C=C/c2ccccc2)=N/NC(N)=S)c(OC)c1 [Compound 26, (E)-2-((E)-1-(2,4-Dimethoxyphenyl)-3-phenylallylidene)hydrazine-1-carbothioamide] | 3.02 ± 0.23 µM | 134 ± 11.4 | – | type (mode) of inhibition [1]: noncompetitive |
| S=C(NCc1ccccc1)Nc1nc(-c2ccccc2)cs1 [Compound 49, 1-Benzyl-3-(4-phenylthiazol-2-yl)thiourea] | 46 ± 3.71 µM | 476 ± 26.1 | 554 ± 18.8 | – |
| NNC(=S)N/N=C(\C=C\c1ccccc1)c1ccccc1 [Compound 29, N′-((1E,2E)-1,3-Diphenylallylidene)hydrazinecarbothiohydrazide] | 2.24 µM | – | – | α quantifier between ESI dissociation constant Ki* and EI dissociation constant Ki [1]: 14.52 |
| NC(=S)N/N=C(\C=C\c1ccccc1)c1ccccc1 [Compound 21, (E)-2-((E)-1,3-Diphenylallylidene)hydrazine-1-carbothioamide] | 6.13 ± 0.714 µM | 102 ± 8.4 | 519 ± 27.6 | type (mode) of inhibition [1]: noncompetitive |
| Cc1ccc(/C=N/NC(=S)NN)cc1 [Compound 28, (E)-N′-(4-Methylbenzylidene)hydrazinecarbothiohydrazide] | 13.5 ± 3.16 µM | 118 ± 7.7 | 664 ± 35.2 | – |
| SC1=NC(c2ccccc2)=CC(c2ccccc2)N1 (stereo not drawn) [Compound 37, 4,6-Diphenyl-3,4-dihydropyrimidine-2(1H)-thione] | 36.2 ± 5.2 µM | – | – | – |
